{"source": "patent US7767659B2", "about": "“Synthesis of naturally occurring ecteinascidins and related compounds” (Pharma Mar, S.A., priority 2002, dated 2010)", "key": {"[1]": {"system": "A-549", "test": "cells", "conditions": "A549, SRB, 48 hours exposure", "description": "(§1) This form of the assay employs 96 well cell culture microplates of 9 mm diameter (Faircloth, 1988; Mosmann, 1983). Most of the cell lines are obtained from American Type Culture Collection (ATCC) derived from different human cancer types.\n(§2) Cells are maintained in RPMI 1640 10% FBS, supplemented with 0.1 g/l penicillin and 0.1 g/l streptomycin sulfate and then incubated at 37° C., 5% CO2 and 98% humidity. For the experiments, cells were harvested from subconfluent cultures using trypsin and resuspended in fresh medium before plating.\n(§3) Cells are seeded in 96 well microtiter plates, at 5×10^3 cells per well in aliquots of 195 μl medium, and they are allowed to attach to the plate surface by growing in drug free medium for 18 hours. Afterward, samples are added in aliquots of 5 μl in a ranging from 10 to 10^−8 μg/ml, dissolved in DMSO/EtOH/PBS (0.5:0.5:99). After 48 hours exposure, the antitumor effect are measured by the SRB methodology: cells are fixed by adding 50 μl of cold 50% (wt/vol) trichloroacetic acid (TCA) and incubating for 60 minutes at 4° C. Plates are washed with deionized water and dried. One hundred μl of SRB solution (0.4% wt/vol in 1% acetic acid) is added to each microtiter well and incubated for 10 minutes at room temperature. Unbound SRB is removed by washing with 1% acetic acid. Plates are air dried and bound stain is solubilzed with Tris buffer. Optical densities are read on a automated spectrophotometric plate reader at a single wavelength of 490 nm.\n(§4) The values for mean +/− SD of data from triplicate wells are calculated. Some parameters for cellular responses can be calculated: GI=growth inhibition, TGI=total growth inhibition (cytostatic effect) and LC=cell killing (cytotoxic effect)."}, "[2]": {"system": "HT-29", "test": "cells", "conditions": "HT29, SRB, 48 hours exposure", "description": "as §1, §2, §3, §4"}, "[3]": {"system": "LoVo", "test": "cells", "conditions": "LOVO, SRB, 48 hours exposure", "description": "as §1, §2, §3, §4"}, "[4]": {"system": "DU-145", "test": "Inhibition of cells growth by colorimetric assay (SRB)", "conditions": "DU145, SRB, 48 hours exposure", "description": "as §1, §2, §3, §4"}, "[5]": {"system": "HeLa-APL", "test": "Inhibition of cells growth by colorimetric assay (SRB)", "conditions": "HELA-APL, SRB, 48 hours exposure", "description": "as §1, §2, §3, §4"}, "[6]": {"system": "HeLa", "test": "Inhibition of cells growth by colorimetric assay (SRB)", "conditions": "HELA, SRB, 48 hours exposure", "description": "as §1, §2, §3, §4"}, "[7]": {"system": "IGROV-1", "test": "Inhibition of cells growth by colorimetric assay (SRB)", "conditions": "IGROV, SRB, 48 hours exposure", "description": "as §1, §2, §3, §4"}, "[8]": {"system": "IGROV-ET", "test": "Inhibition of cells growth by colorimetric assay (SRB)", "conditions": "IGROV-ET, SRB, 48 hours exposure", "description": "as §1, §2, §3, §4"}, "[9]": {"system": "K-562", "test": "Inhibition of cells growth by colorimetric assay (SRB)", "conditions": "K562, SRB, 48 hours exposure", "description": "as §1, §2, §3, §4"}, "[10]": {"system": "LNCaP", "test": "Inhibition of cells growth by colorimetric assay (SRB)", "conditions": "LNCAP, SRB, 48 hours exposure", "description": "as §1, §2, §3, §4"}, "[11]": {"system": "LoVo-Dox", "test": "Inhibition of cells growth by colorimetric assay (SRB)", "conditions": "LOVO-DOX, SRB, 48 hours exposure", "description": "as §1, §2, §3, §4"}, "[12]": {"system": "PANC-1", "test": "Inhibition of cells growth by colorimetric assay (SRB)", "conditions": "PANC-1, SRB, 48 hours exposure", "description": "as §1, §2, §3, §4"}, "[13]": {"system": "SK-BR-3", "test": "Inhibition of cells growth by colorimetric assay (SRB)", "conditions": "SK-BR3, SRB, 48 hours exposure", "description": "as §1, §2, §3, §4"}, "[14]": {"system": "SK-MEL-28", "test": "Inhibition of cells growth by colorimetric assay (SRB)", "conditions": "MEL-28, SRB, 48 hours exposure", "description": "as §1, §2, §3, §4"}}, "data": [{"smiles": "COC1=C(C)C(=O)C2=C(C1=O)C1C3C4SCC(NC(C)=O)C(=O)OCC(c5c6c(c(C)c(OC(C)=O)c54)OCO6)N3C(O)C(C2)N1C", "note": "(stereo not shown) [ET-637-quinone, ecteinascidin 637 quinone]", "values": [{"measurement": "A549 TGI", "setting": "[1]", "result": "1.09E−08", "unit": "Molar"}, {"measurement": "GI50", "setting": "[1]; read-out: A549 GI50", "result": 4.42, "unit": "nM"}, {"measurement": "CC50", "setting": "[1]; read-out: A549 LC50", "result": 51.5, "unit": "nM"}, {"measurement": "HT29 TGI", "setting": "[2]", "result": "7.78E−09", "unit": "Molar"}, {"measurement": "GI50", "setting": "[2]; read-out: HT29 GI50", "result": 3.32, "unit": "nM"}, {"measurement": "CC50", "setting": "[2]; read-out: HT29 LC50", "result": 2260, "unit": "nM"}, {"measurement": "LOVO TGI", "setting": "[3]", "result": "8.51E−09", "unit": "Molar"}, {"measurement": "GI50", "setting": "[3]; read-out: LOVO GI50", "result": 3.98, "unit": "nM"}, {"measurement": "CC50", "setting": "[3]; read-out: LOVO LC50", "result": 6080, "unit": "nM"}, {"measurement": "DU145 TGI", "setting": "[4]", "result": "6.30E−09", "unit": "Molar"}, {"measurement": "GI50", "setting": "[4]; read-out: DU145 GI50", "result": 3.74, "unit": "nM"}, {"measurement": "CC50", "setting": "[4]; read-out: DU145 LC50", "result": 15.3, "unit": "nM"}, {"measurement": "HELA-APL TGI", "setting": "[5]", "result": "5.12E−09", "unit": "Molar"}, {"measurement": "GI50", "setting": "[5]; read-out: HELA-APL GI50", "result": 2.39, "unit": "nM"}, {"measurement": "CC50", "setting": "[5]; read-out: HELA-APL LC50", "result": 10.9, "unit": "nM"}, {"measurement": "HELA TGI", "setting": "[6]", "result": "4.88E−09", "unit": "Molar"}, {"measurement": "GI50", "setting": "[6]; read-out: HELA GI50", "result": 2.24, "unit": "nM"}, {"measurement": "CC50", "setting": "[6]; read-out: HELA LC50", "result": 10.6, "unit": "nM"}, {"measurement": "IGROV TGI", "setting": "[7]", "result": "5.80E−09", "unit": "Molar"}, {"measurement": "GI50", "setting": "[7]; read-out: IGROV GI50", "result": 2.76, "unit": "nM"}, {"measurement": "CC50", "setting": "[7]; read-out: IGROV LC50", "result": 12.1, "unit": "nM"}, {"measurement": "IGROV-ET TGI", "setting": "[8]", "result": "6.91E−08", "unit": "Molar"}, {"measurement": "GI50", "setting": "[8]; read-out: IGROV-ET GI50", "result": 34.2, "unit": "nM"}, {"measurement": "CC50", "setting": "[8]; read-out: IGROV-ET LC50", "result": 139, "unit": "nM"}, {"measurement": "K562 TGI", "setting": "[9]", "result": "1.97E−09", "unit": "Molar"}, {"measurement": "CC50", "setting": "[9]; read-out: K562 LC50", "result": 14.4, "unit": "nM"}, {"measurement": "LNCAP TGI", "setting": "[10]", "result": "3.64E−09", "unit": "Molar"}, {"measurement": "GI50", "setting": "[10]; read-out: LNCAP GI50", "result": 1.78, "unit": "nM"}, {"measurement": "CC50", "setting": "[10]; read-out: LNCAP LC50", "result": 7.44, "unit": "nM"}, {"measurement": "LOVO-DOX TGI", "setting": "[11]", "result": "9.62E−07", "unit": "Molar"}, {"measurement": "GI50", "setting": "[11]; read-out: LOVO-DOX GI50", "result": 262, "unit": "nM"}, {"measurement": "CC50", "setting": "[11]; read-out: LOVO-DOX LC50", "result": 90, "unit": "nM"}, {"measurement": "PANC-1 TGI", "setting": "[12]", "result": "8.24E−09", "unit": "Molar"}, {"measurement": "GI50", "setting": "[12]; read-out: PANC-1 GI50", "result": 3.72, "unit": "nM"}, {"measurement": "CC50", "setting": "[12]; read-out: PANC-1 LC50", "result": 3.42, "unit": "nM"}, {"measurement": "SK-BR3 TGI", "setting": "[13]", "result": "2.67E−09", "unit": "Molar"}, {"measurement": "CC50", "setting": "[13]; read-out: SK-BR3 LC50", "result": 8.51, "unit": "nM"}, {"measurement": "MEL-28 TGI", "setting": "[14]", "result": "5.34E−09", "unit": "Molar"}, {"measurement": "GI50", "setting": "[14]; read-out: MEL-28 GI50", "result": 2.96, "unit": "nM"}, {"measurement": "CC50", "setting": "[14]; read-out: MEL-28 LC50", "result": 9.61, "unit": "nM"}]}]}
